Measured values published in patent publication US7112573B2, “Isoflavone and triterpene glycosides from soybeans” (Iowa Research, The University Foundation, priority 2002, dated 2006).
Converted amounts (≈) assume the structure as drawn.

What was measured:
Format in all cases: cell-based, human
Settings in all cases: 6 days incubation, 50% reduction of absorbance vs untreated controls, mean of 2 observations
[1] = system: Hs 740.T stomach carcinoma cell line; assay: MTT cytotoxicity assay, Hs 740.T
Excerpt: (§1) Here, as described herein below, the inventors used human stomach carcinoma (Hs 740.T, Hs 756 T), breast adenocarcinoma (Hs 578 T, Hs 742.T) and prostate carcinoma (DU 145, and LNCaP-FGC) cell lines to evaluate the cytotoxic activities of extracts and the compounds provided the invention. The 50% effective doses (ED50) obtained by measuring growth inhibition with MTT (3-[4,5-dimethlthiazol-2-yl]-2,5-diphenyltetrazolium bromide]) (Goren et al, 1996; Rubinstein et al, 1990) are shown in Table 3.
(§2) The following materials and reagents were used for cell culture and cytotoxic assays. Human stomach carcinoma (Hs 740.T, Hs 756 T), breast adenocarcinoma (Hs 578 T, Hs 742.T) and prostate carcinoma (DU 145, LNCaP-FGC) cell lines were purchased from the American Type Culture Collection ATCC. Dulbecco's modified Eagle medium (DMEM) (Gibco, Grand Island, N.Y.), Eagle Minimum Essential Medium (EMEM) and Rosewell Park Memorial Institute (RPMI) 1640 medium were from Nissui Pharm. Co., Ltd., Tokyo, Japan. Flat-bottom plates, 96-well were from Iwaki Glass Co., LTD (Funabashi-Chiba-Ken, Japan). The 3-[4,5-dimethlthiazol-2-yl]-2,5-diphenyltetrazolium bromide (MTT) colorimetric assay (Goren et al., 1996; Rubinstein et al., 1990) was from Sigma (St. Louis, Mo., USA), and 10% fetal bovine serum FBS was from Gibco BRL (Rockville, Md., USA). All other chemicals used were of analytical reagent grade.
(§3) Cell lines Hs 740.T, Hs 746 T, Hs 578 T and Hs 742.T were cultured in Dulbecco's Modified Eagle's Medium (DMEM) containing 10% heat-inactivated Fetal Bovine Serum (FBS). The DU 145 cells were cultured in Eagle Minimum Essential Medium (EMEM) containing Earle's salts and supplemented with amino acids and 10% heat-inactivated FBS. The LNCaP-FGC cell lines were maintained in Rosewell Park Memorial Institute (RPMI) 1640 medium containing 10% heat-inactivated FBS. All cell lines were cultivated in an incubator at 37° C. in humidified air containing 5% CO2. For routine cytotoxicity assays, all six cell lines were adapted to one single medium RPMI 1640 medium supplemented with 10% FBS, 2 mM L-glutamine, penicillin (100 units/mL) and streptomycin (100 μg/mL). For the microassay, the growth medium was supplemented with 10 mM HEPES (1-(2-hydroxyethyl) piperazine-4-ethanesulfonic acid) buffer (pH 7.3) and incubated at 37° C. in a CO2 incubator. These methods are similar to those used by Goren et al., (1996) AND Rubinstein et al., (1990).
(§4) Cellular viability in the presence and absence of experimental agents was determined using the standard MTT (3-[4,5-dimethlthiazol-2-yl]-2,5-diphenyltetrazolium bromide) calorimetric assay (Goren et al., 1996; Rubinstein et al., 1990). The assay is based on reduction of MTT by the mitochondrial dehydrogenase of viable cells to give a blue formazan product that can be measured spectrophotometrically (Goren et al., 1996; Rubinstein et al., 1990). In brief, exponentially growing cells were harvested, and 200 μL cells suspension were seeded in 96-well microplates and preincubated for 24 h at 37° C. under 5% CO2 to allow cell attachment. After attachment, 10 μL of an EtOH: H2O (1:1 solution) containing varying concentrations of test samples were added to wells in duplicate, and 10 μL EtOH:H2O (1:1) was added into wells as a control. Sample containing microplates were further incubated for 6 days. Cell survival was evaluated by adding 10 μL of 5 mg mL of MTT in 0.1 mM, pH 7.4 phosphate buffered saline to each well, and reincubating plates in 5% CO2/air for 4 h at 37° C. Plates were then centrifuged at 1,500×g for 5 min to precipitate cells and MTT formazan. An aliquot of 100 μL of the supernatant was removed, and DMSO (100 μL) was added to dissolve the precipitated, reduced MTT. The plate was mixed on a microshaker for 10 min, and the absorbance was determined at 550 nm with a multiwell scanning spectrophotometer (Dynex MR 5000, Chantilly Va.). […]

[2] = system: Hs 746 T stomach carcinoma cell line; assay: MTT cytotoxicity assay, Hs 746 T
Excerpt: as §1, §2, §3, §4

[3] = system: Hs 578 T breast adenocarcinoma cell line; assay: MTT cytotoxicity assay, Hs 578 T
Excerpt: as §1, §2, §3, §4

[4] = system: HS 742.T breast adenocarcinoma cell line; assay: MTT cytotoxicity assay, HS 742.T
Excerpt: as §1, §2, §3, §4

[5] = system: DU 145 prostate carcinoma cell line; assay: MTT cytotoxicity assay, DU 145
Excerpt: as §1, §2, §3, §4

[6] = system: LNCAp-FGC prostate carcinoma cell line; assay: MTT cytotoxicity assay, LNCaP-FGC
Excerpt: as §1, §2, §3, §4

Row | SMILES | ED50 Stomach Carcinoma Hs 740.T [1] | ED50 Stomach Carcinoma Hs 746 T [2] | ED50 Breast Adenocarcinoma Hs 578 T [3] | ED50 Breast Adenocarcinoma HS 742.T [4] | ED50 Prostate Carcinoma DU 145 [5] | ED50 Prostate Carcinoma LNCAp-FGC [6]
1 | O=C1c2ccc(O[C@@H]3O[C@H](CO)[C@@H](O)[C@H](O)[C@H]3O)cc2OCC1c1ccc(O)cc1 (stereo partly drawn) [Compound 1, 7-O-β-D-glucopyranosyl-4′-hydroxy-isoflavanone] | 17.37 µg/mL (≈ 41.5 µM) | 14.92 µg/mL (≈ 35.7 µM) | 28.23 µg/mL (≈ 67.5 µM) | 33.57 µg/mL (≈ 80.2 µM) | 9.16 µg/mL (≈ 21.9 µM) | 32.45 µg/mL (≈ 77.6 µM)
2 | O=C1c2c(O)cc(O[C@@H]3O[C@H](CO)[C@@H](O)[C@H](O)[C@H]3O)cc2OCC1c1ccc(O)cc1 (stereo partly drawn) [Compound 2, 7-O-β-D-glucopyranosyl-5,7,4′-trihydroxyisoflavanone] | 15.12 µg/mL (≈ 34.8 µM) | 12.24 µg/mL (≈ 28.2 µM) | 15.36 µg/mL (≈ 35.4 µM) | 30.80 µg/mL (≈ 70.9 µM) | 10.25 µg/mL (≈ 23.6 µM) | 41.58 µg/mL (≈ 95.7 µM)
3 | COc1ccc(-c2coc3cc(OC4OC(COC(C)=O)[C@@H](O)C(O)C4OC(C)=O)ccc3c2=O)cc1 (stereo partly drawn) [Compound 3, formononetin-7-O-(2″,6″-O-diacetyl) glucopyranoside] | 7.61 µg/mL (≈ 14.8 µM) | 8.89 µg/mL (≈ 17.3 µM) | 5.44 µg/mL (≈ 10.6 µM) | 25.53 µg/mL (≈ 49.6 µM) | 4.18 µg/mL (≈ 8.12 µM) | 22.12 µg/mL (≈ 43 µM)
4 | O=c1c(-c2ccc(O)cc2)coc2cc(O)cc(O)c12 [Compound 5, genistein, reference compound] | 4.38 µg/mL (≈ 16.2 µM) | 5.82 µg/mL (≈ 21.5 µM) | 3.50 µg/mL (≈ 13 µM) | 14.88 µg/mL (≈ 55.1 µM) | 2.39 µg/mL (≈ 8.84 µM) | 25.45 µg/mL (≈ 94.2 µM)
5 | C[C@@H]1O[C@@H](O[C@H]2[C@H](O[C@@H]3CC(C)(C)C[C@H]4C5=CC[C@@H]6[C@@]7(C)CC[C@H](O[C@@H]8O[C@H](C(=O)O)[C@@H](O)[C@H](O)[C@H]8O[C@@H]8O[C@H](CO)[C@H](O)[C@H](O)[C@H]8O[C@@H]8O[C@@H](C)[C@H](O)[C@@H](O)[C@H]8O)[C@@](C)(CO)[C@@H]7CC[C@@]6(C)[C@]5(C)CC[C@@]34C)OC[C@H](O)[C@@H]2O)[C@H](O)[C@H](O)[C@H]1O [Compound 13] | 3.53 µg/mL (≈ 2.89 µM) | 2.47 µg/mL (≈ 2.02 µM) | 2.39 µg/mL (≈ 1.96 µM) | 17.51 µg/mL (≈ 14.3 µM) | 3.12 µg/mL (≈ 2.55 µM) | 27.50 µg/mL (≈ 22.5 µM)
6 | C[C@@H]1O[C@@H](O[C@H]2[C@H](O[C@H]3[C@H](O[C@H]4CC[C@@]5(C)[C@@H](CC[C@]6(C)[C@@H]5CC=C5[C@@H]7CC(C)(C)C[C@@H](O[C@@H]8O[C@H](CO)[C@@H](O)[C@H](O)[C@H]8O[C@@H]8O[C@@H](C)[C@H](O)[C@@H](O)[C@H]8O)[C@]7(C)CC[C@]56C)[C@]4(C)CO)O[C@H](C(=O)O)[C@@H](O)[C@@H]3O)O[C@H](CO)[C@H](O)[C@@H]2O)[C@H](O)[C@H](O)[C@H]1O [Compound 14] | 4.10 µg/mL (≈ 3.28 µM) | 3.94 µg/mL (≈ 3.15 µM) | 2.12 µg/mL (≈ 1.69 µM) | 14.63 µg/mL (≈ 11.7 µM) | 3.25 µg/mL (≈ 2.6 µM) | 24.10 µg/mL (≈ 19.3 µM)
7 | CC1(C)C[C@H]2C3=CC[C@@H]4[C@@]5(C)CC[C@H](O[C@@H]6O[C@H](C(=O)O)[C@@H](O)[C@H](O)[C@H]6O[C@@H]6O[C@H](CO)[C@H](O)[C@H](O)[C@H]6O)[C@](C)(CO)[C@@H]5CC[C@@]4(C)[C@]3(C)CC[C@@]2(C)[C@H](O[C@@H]2OC[C@H](O)[C@H](O[C@@H]3O[C@H](CO)[C@@H](O)[C@H](O)[C@H]3O)[C@H]2O)[C@@H]1O [Compound 15, 3-O-{[β-D-galactopyranosyl-(1→2)-β-D-glucuronopyranosyl]}-22-O-[β-D-glucopyranosyl(1→3)-α-L-arabinopyranosyl]soyasapogenol A, reference compound] | 3.15 µg/mL (≈ 2.84 µM) | 3.22 µg/mL (≈ 2.91 µM) | 4.84 µg/mL (≈ 4.37 µM) | 30.10 µg/mL (≈ 27.2 µM) | 2.11 µg/mL (≈ 1.91 µM) | 30.70 µg/mL (≈ 27.7 µM)
8 | CC1(C)C[C@@H](O)[C@]2(C)CC[C@]3(C)C(=CC[C@@H]4[C@@]5(C)CC[C@H](O[C@@H]6O[C@H](C(=O)O)[C@@H](O)[C@H](O)[C@H]6O[C@@H]6O[C@H](CO)[C@H](O)[C@H](O)[C@H]6O[C@@H]6O[C@H](CO)[C@@H](O)[C@H](O)[C@H]6O)[C@@](C)(CO)[C@@H]5CC[C@]43C)[C@@H]2C1 [Compound 16, 3-O-[β-D-glucopyranosyl-(1→2)-β-D-galactopyranosyl(1→2)-β-D-glucuronopyranosyl] soyasapogenol B, reference compound] | 8.97 µg/mL (≈ 9.35 µM) | 7.36 µg/mL (≈ 7.67 µM) | 9.87 µg/mL (≈ 10.3 µM) | 31.55 µg/mL (≈ 32.9 µM) | 5.75 µg/mL (≈ 5.99 µM) | 40.68 µg/mL (≈ 42.4 µM)
9 | CC1(C)C[C@@H](O)[C@]2(C)CC[C@]3(C)C(=CC[C@@H]4[C@@]5(C)CC[C@H](O[C@@H]6O[C@H](C(=O)O)[C@@H](O)[C@H](O)[C@H]6O)[C@@](C)(CO)[C@@H]5CC[C@]43C)[C@@H]2C1 [Compound 17, 3-O-[β-D-glucuronopyranosyl]soyasapogenol B, reference compound] | 9.61 µg/mL (≈ 15.1 µM) | 9.59 µg/mL (≈ 15.1 µM) | 8.77 µg/mL (≈ 13.8 µM) | 28.68 µg/mL (≈ 45.2 µM) | 9.13 µg/mL (≈ 14.4 µM) | 37.29 µg/mL (≈ 58.7 µM)
